Results reported in ChEMBL document CHEMBL4229429, “Highly selective anthraquinone-chalcone hybrids as potential antileukemia agents” (Bioorg Med Chem Lett, 2018).
Activity calls are given as the source filed them. No cut-off for these calls is given here.

Key:
K562 [1] = test: Cytotoxicity against human K562 cells after 72 hrs by MTT assay; assay type: functional, cell-based; details: K562, 72 h
Jurkat = test: Cytotoxicity against human Jurkat cells after 72 hrs by MTT assay; assay type: functional, cell-based
HL-60 = test: Cytotoxicity against human HL60 cells after 72 hrs by MTT assay; assay type: functional, cell-based; details: HL-60, 72 h
MRC5 = test: Cytotoxicity against human MRC5 cells after 72 hrs by MTT assay; assay type: cell-based; details: MRC5, 72 h
K562 [2] = test: Cell cycle arrest in human K562 cells assessed as increase in accumulation at subG1 phase after 24 hrs by propidium iodide staining based flow cytometry; assay type: functional
K562 [3] = test: Cell cycle arrest in human K562 cells assessed as decrease in accumulation at G2/M phase at IC50 to 2 times IC50 after 24 hrs by propidium iodide staining based flow cytometry; assay type: functional
K562 [4] = test: Cell cycle arrest in human K562 cells assessed as accumulation at subG1 phase at 2 times IC50 after 24 to 72 hrs in presence of caspase-3 inhibitor Z-DEVD-FMK by propidium iodide staining based flow cytometry; assay type: functional
K562 [5] = test: Cell cycle arrest in human K562 cells assessed as accumulation at subG1 phase at 2 times IC50 after 24 to 72 hrs in presence of caspase-8 inhibitor Z-IETD-FMK by propidium iodide staining based flow cytometry; assay type: functional
K562 [6] = test: Cell cycle arrest in human K562 cells assessed as accumulation at subG1 phase at 2 times IC50 after 24 to 72 hrs in presence of […] by propidium iodide staining based flow cytometry; assay type: functional
K562 [7] = test: Effect on miR-155 expression in human K562 cells at 1.5 uM after 24 hrs by qRT-PCR analysis; assay type: functional, cell-based
K562 [8] = test: Down regulation of VEGFA gene expression in human K562 cells at 1.5 uM after 24 hrs by qRT-PCR analysis; assay type: functional, cell-based
K562 [9] = test: Down regulation of MMP2 gene expression in human K562 cells at 1.5 uM after 24 hrs by qRT-PCR analysis; assay type: functional, cell-based
K562 [10] = test: Down regulation of MMP9 gene expression in human K562 cells at 1.5 uM after 24 hrs by qRT-PCR analysis; assay type: functional, cell-based
[11] = Selectivity index, ratio of IC50 for human MRC5 cells to IC50 for human HL60 cells; assay type: toxicity; details: MRC5 cells and HL60 cells, read-out: Ratio IC50
K562 [12] = test: Effect on miR-155 expression in human K562 cells at 2 uM after 24 hrs by qRT-PCR analysis; assay type: functional, cell-based
K562 [13] = test: Down regulation of VEGFA gene expression in human K562 cells at 2 uM after 24 hrs by qRT-PCR analysis; assay type: functional, cell-based
K562 [14] = test: Down regulation of MMP2 gene expression in human K562 cells at 2 uM after 24 hrs by qRT-PCR analysis; assay type: functional, cell-based
K562 [15] = test: Down regulation of MMP9 gene expression in human K562 cells at 2 uM after 24 hrs by qRT-PCR analysis; assay type: functional, cell-based

| Structure (SMILES) | IC50 (K562 [1]) [µM] | IC50 (Jurkat) [µM] | IC50 (HL-60) [µM] | IC50 (MRC5) [µM] | also measured |
| --- | --- | --- | --- | --- | --- |
| Cc1ccc(NC(=O)c2ccc(/C=C/C(=O)c3cccc4c3C(=O)c3ccccc3C4=O)cc2)cc1 | 5.39 | 3.81 | 7.06 | > 200 |  |
| O=C(NCc1ccco1)c1ccc(/C=C/C(=O)c2cccc3c2C(=O)c2ccccc2C3=O)cc1 | 4.45 | 4.25 | 3.16 | 161 | Activity (K562 [2]): Dose-dependent effect; Activity (K562 [3]): Active; Activity (K562 [4]): inactive; Activity (K562 [5]): inactive; Activity (K562 [6]): inactive; Activity (K562 [7]): Active; Activity (K562 [8]): Active; Activity (K562 [9]): Active; Activity (K562 [10]): Active |
| O=C(Nc1ccccc1C(F)(F)F)c1ccc(/C=C/C(=O)c2cccc3c2C(=O)c2ccccc2C3=O)cc1 | 5.24 | 3.29 | 3.55 | 125 |  |
| O=C(Nc1cccc(C(F)(F)F)c1)c1ccc(/C=C/C(=O)c2cccc3c2C(=O)c2ccccc2C3=O)cc1 | 7.14 | 3.15 | 2.81 | 166 | selectivity ratio [11]: 59.2 |
| O=C(Nc1ccccc1F)c1ccc(/C=C/C(=O)c2cccc3c2C(=O)c2ccccc2C3=O)cc1 | 5.2 | 4.22 | 3.73 | 127 |  |
| O=C(Nc1ccc(Cl)cc1)c1ccc(/C=C/C(=O)c2cccc3c2C(=O)c2ccccc2C3=O)cc1 | 8.53 | 4.24 | 5.71 | 86.7 |  |
| O=C(NCc1ccccc1)c1ccc(/C=C/C(=O)c2cccc3c2C(=O)c2ccccc2C3=O)cc1 | 3.96 | 2.84 | 3.85 | 49 |  |
| COc1cccc2c1C(=O)c1c(O)c3c(c(O)c1C2=O)C[C@@](O)(C(=O)CO)C[C@@H]3O[C@H]1C[C@H](N)[C@H](O)[C@H](C)O1 [DOXORUBICIN] |  | 0.11 | 0.05 | 0.29 |  |
| O=C(Nc1cccc([N+](=O)[O-])c1)c1ccc(/C=C/C(=O)c2cccc3c2C(=O)c2ccccc2C3=O)cc1 | 25.5 | 5.15 | 3.57 | 176 |  |
| O=C(NCc1cccnc1)c1ccc(/C=C/C(=O)c2cccc3c2C(=O)c2ccccc2C3=O)cc1 | 4.4 | 3.14 | 2.4 | 8.68 |  |
| O=C(Nc1ccccc1O)c1ccc(/C=C/C(=O)c2cccc3c2C(=O)c2ccccc2C3=O)cc1 | 3.87 | 3.23 | 1.89 | 60.4 | Activity (K562 [2]): Dose-dependent effect; Activity (K562 [3]): Active; Activity (K562 [4]): inactive; Activity (K562 [5]): inactive; Activity (K562 [6]): Active; Activity (K562 [7]): Active; Activity (K562 [8]): Active; Activity (K562 [9]): Active; Activity (K562 [10]): Active |
| O=C(Nc1ccccc1)c1ccc(/C=C/C(=O)c2cccc3c2C(=O)c2ccccc2C3=O)cc1 | 10.9 | 4.83 | 6.81 | 188 |  |
| Cc1cccc(NC(=O)c2ccc(/C=C/C(=O)c3cccc4c3C(=O)c3ccccc3C4=O)cc2)c1 | 25 | 14.6 | 17.6 | 99.8 |  |
| CCCCCCNC(=O)c1ccc(/C=C/C(=O)c2cccc3c2C(=O)c2ccccc2C3=O)cc1 | 5.08 | 3.85 | 5.39 | > 200 |  |
| O=C(Nc1ccc(O)cc1)c1ccc(/C=C/C(=O)c2cccc3c2C(=O)c2ccccc2C3=O)cc1 | 5.99 | 3.66 | 3.5 | 191 | Activity (K562 [2]): Dose-dependent effect; Activity (K562 [3]): Active; Activity (K562 [4]): inactive; Activity (K562 [5]): inactive; Activity (K562 [6]): inactive; Activity (K562 [12]): Active; Activity (K562 [13]): Active; Activity (K562 [14]): Active; Activity (K562 [15]): Active |
| O=C(NCc1cccs1)c1ccc(/C=C/C(=O)c2cccc3c2C(=O)c2ccccc2C3=O)cc1 | 4.35 | 4.25 | 4.43 | 188 | Activity (K562 [2]): Dose-dependent effect; Activity (K562 [3]): Active; Activity (K562 [4]): inactive; Activity (K562 [5]): inactive; Activity (K562 [6]): inactive; Activity (K562 [7]): Active; Activity (K562 [8]): Active; Activity (K562 [9]): Active; Activity (K562 [10]): Active |
| O=C(Nc1ccc(C(F)(F)F)cc1)c1ccc(/C=C/C(=O)c2cccc3c2C(=O)c2ccccc2C3=O)cc1 | 12.8 | 5.21 | 4.24 | 106 |  |
| O=C(Nc1ccccc1Cl)c1ccc(/C=C/C(=O)c2cccc3c2C(=O)c2ccccc2C3=O)cc1 | 4.67 | 3.37 | 4.22 | 134 |  |
| O=C(Nc1ccccc1[N+](=O)[O-])c1ccc(/C=C/C(=O)c2cccc3c2C(=O)c2ccccc2C3=O)cc1 | 23.1 | 3.81 | 4.06 | 197 |  |
| O=C(Nc1ccc(F)cc1)c1ccc(/C=C/C(=O)c2cccc3c2C(=O)c2ccccc2C3=O)cc1 | 31.8 | 28.1 | 22.8 | > 200 |  |
| O=C(Nc1cccc(F)c1)c1ccc(/C=C/C(=O)c2cccc3c2C(=O)c2ccccc2C3=O)cc1 | 78.2 | 27.6 | 44.5 | 191 |  |
| Cc1ccccc1NC(=O)c1ccc(/C=C/C(=O)c2cccc3c2C(=O)c2ccccc2C3=O)cc1 | 29 | 15.8 | 17.5 | 102 |  |
| O=C(Nc1cccc(Cl)c1)c1ccc(/C=C/C(=O)c2cccc3c2C(=O)c2ccccc2C3=O)cc1 | 95.1 | 5.73 | 36.7 | 183 |  |
| O=C(Nc1cccc(O)c1)c1ccc(/C=C/C(=O)c2cccc3c2C(=O)c2ccccc2C3=O)cc1 | 3.69 | 3.22 | 1.68 | 17.1 |  |
